1 substance from US20240417743A1, “METHODS FOR IMPROVING GENOME ENGINEERING AND REGENERATION IN PLANT” (KWS SAAT SE & Co. KGaA, priority 2018, published 2024) can be followed below.

This data set concerns maize WUS2 promoter. The data set can be described thus: Maize WUS2 promoter tDT report construct co-bombardment. Format: cell-based. From the text:
Homeobox domain transcriptional factor WUSCHEL (WUS) plays an important role in establishing and maintaining of shoot meristem. To identify boost factors that promote endogenous WUS2 expression, the maize WUSCHEL 2 promoter report construct (pAMK-ZmWUS2-tDT-noT) (SEQ ID NO: 43; FIG. 13) was used to illustrate maize WUS2 promoter activity. The maize WUS2 promoter (pZmWUS2) drove expression of the tDT report gene in this report construct (FIG. 13). The WUS2 promoter report construct was co-bombarded with boost factors individually in maize immature embryos and leaf segments.
Fresh leaf segments of 1-2 cm in length were prepared from the in vitro-cultured maize A188 seedling of 10-14 days old, and placed on the Osmotic medium with abaxial side up for 4 hours. For co-bombardment, two plasmids (100 ng of ZmWUS2 promoter report (FIG. 13) and 100 ng of boost construct, e.g. TaRKD4 (FIG. 5)) were premixed and coated onto 100 μg of gold particles size 0.4 μm. Immature embryo preparation, bombardment, and post-bombardment culturing were carried out as described in Example 1 and Example 2. Red fluorescence showing tDT expression was monitored using a fluorescent microscope started at 16 hours after bombardment.

[1] abbreviates: A188 leaf segments, after bombardment.

Regarding “wheat RKD4: wheat RKD4 boost gene, expression construct pABM-BdEF1-TaRKD4 (SEQ ID NO: 28)”, under setting [1], the “time at which tDT signal peaked” value is recorded as “around 44 hours” and the “time at which tDT signal was detected” value was “around 36 hours”. Moreover, for the setting “immature embryos and leaf segments”, the “activation of maize WUS2 genes” value is “strongly activate”. Besides, the “tDT red fluorescent signals” value (immature embryos, 44 hours after bombardment, compared to WUS promoter reporter only) is “extremely strong red fluorescent signals”.
